Laboratory results published in US20190079094A1, “SUBCELLULAR LOCALIZATION OF TARGET ANALYTES” (Beckman Coulter, Inc., priority 2016, published 2019).
Entries after “also recorded” stand apart in the source; their conditions may differ.

Assays:
[1] = tested on: Lymphocytes and Monocytes in whole blood; assay: Performance of detergents with whole blood (alternative approaches); format: cell-based; settings: for concentration at which surface markers are lost and cells disintegrate: Buffer 2 upper bound
Protocol: An exemplary kit is composed of two separate buffers for whole-blood mononuclear cells (i.e., lymphocytes+monocytes): 1) The first buffer is to permeabilize the cytoplasm, including the ER, the endosomal system, and the outer mitochondrial membrane, while 2) the second buffer is to permeabilize everything permeabilized by the first buffer, plus the nucleus (and, in some embodiments, the inner mitochondrial matrix). Buffer 1 (Cytoplasm) may be composed of: 1-100 mM MES pH 4.5-6.5, 0-274 mM NaCl, 0-5.4 mM KCl, and 0.01-0.15% Digitonin. The optimal detergent concentration for Buffer 1 is between […] Digitonin, where the cytoplasm is lysed but the nucleus is not. Buffer 2 (Whole Cell) may be composed of: 1-100 mM MES pH 4.5-6.5, 0-274 mM NaCl, 0-5.4 mM KCl, and >0.01% Digitonin or >0.0125% Triton X-100. The optimal detergent concentration for Buffer 2 depends on the sample type, with the upper bound limited by the loss of surface markers and the disintegration of cells that occurs around 2% for both.
The methods of the invention rely on different detergents or detergent concentrations in order to gently lyse the cytoplasm plus as many cytoplasmic components as possible in one tube, and the whole cell including the nucleus in the other tube. For this reason, a variety of detergents will work to accomplish this task. Some are as follows, with reference to their performance with whole blood: […]

[2] = Precipitation of detergent from solution at reduced pH; format: physicochemical; settings: regardless of the concentration
Excerpt: However, the performance of CHAPS decreases at lower pHs, and Sodium Deoxycholate immediately precipitates out of solution at pHs lower than ˜7.0 regardless of the concentration. Therefore, these may be useful for PBMCs or cell lines where a reduced pH is not necessary, but not for whole blood.

[3] = tested on: T cells and monocytes in whole blood; assay: Optimal lysis parameters for whole blood in MES-buffered solution (HSP60, Lamin A/C); format: cell-based; settings: 5% fixative
Excerpt: FIGS. 5A and 5B. Cytoplasmic vs. Nuclear Membrane Permeabilization in a Whole Blood Sample using the Optimal Buffer Compositions. A) The CD45 vs. SS and FS vs. SS profiles of the samples after lysis. B) The degree of mitochondrial vs. nuclear membrane permeabilization in T cells. C) The degree of mitochondrial vs. nuclear membrane permeabilization in Monocytes. All of the detergent concentrations used in this experiment fully permeabilized the plasma membrane, while HSP60 and Lamin A/C indicate the degree of mitochondrial inner membrane and nuclear membrane permeabilization, respectively.
FIG. 5 indicates the optimal lysis parameters for whole blood, including modified buffer conditions in order to improve RBC lysis. […] In order to improve RBC lysis, the solution was ultimately buffered with MES at a pH between 4.5-6.5 (such as a pH of 5.5), which also allowed the salt concentration to be increased to physiological levels. This further improved the scatter profiles of the WBCs, decreased the time required for complete lysis to approximately 15 minutes, and improved the RBC lysis efficiency to the point that the buffers still work well if the fixation time is extended well beyond protocol (>20 min). At the same time, the fixative concentration was increased to 5% due to improved performance. In FIG. 5A, the scatter profiles for the optimal lysis parameters can be seen, where 0.0625% Digitonin is optimal for cytoplasmic membrane permeabilization, and either 0.5% Digitonin or 0.25% TX-100 are optimal for whole-cell membrane permeabilization. […] In both cases, the permeabilization profiles can be seen to be consistent with the defined optimal detergent concentrations.

[4] = tested on: MCF-7 cells; assay: Modified protocol with MCF-7 cells preloaded with CytoCalcein Violet; format: cell-based, human; settings: for concentration permeabilizing only the plasma (cytoplasmic) membrane: loss of CytoCalcein Violet
Protocol: FIG. 4. Modified Protocol to Assess the Permeabilization of the Plasma Membrane with MCF-7 Cells. The cells were preloaded with CytoCalcein Violet, and cytoplasmic membrane permeabilization is indicated by the loss of this signal. In this experiment, 0.025% Digitonin or TX-100 permeabilized only the cytoplasm, while 0.25% of either fully permeabilized the both cytoplasmic and nuclear membranes.
In this experiment, after the cells had been plated for 24 hours, they were preloaded for 1 hour with 1 μM CytoCalcein Violet and then processed as indicated in FIG. 3. When the samples were ready for cover-slipping, mounting medium without DAPI was used. Images were captured on a Zeiss Axioskop 2 Plus microscope together with a 63× oil-immersion lens. In this figure, MCF-7 cells that were not permeabilized can be seen to be loaded with CytoCalcein Violet, and this staining is lost once the plasma membrane is permeabilized. […] In this experiment, 0.025% of both Digitonin and TX-100 can be seen to permeabilize the plasma membrane, while 0.25% of both can be seen to permeabilize the whole cell. This modified protocol was used for subsequent testing of the performance of the different detergents with whole blood and PBMCs by flow cytometry, including for the results in FIG. 2.

[5] = tested on: T cells and monocytes in whole blood; assay: Digitonin and TX-100 titration on whole blood, flow cytometry (CytoCalcein Violet loss, HDAC1 staining); format: cell-based; settings: for concentration at which the nucleus is also permeabilized: peaked HDAC1 staining
Excerpt: (§1) FIGS. 2A and 2B. Digitonin and TX-100 Titrations to Determine the Optimal Concentrations for Cytoplasmic vs. Nuclear Membrane Permeabilization. A) The cytoplasmic membrane in whole blood is fully permeabilized around 0.031% Digitonin, while the nucleus is also permeabilized around 0.5% Digitonin or 0.125% TX-100. B) The cytoplasmic membrane in PBMCs is fully permeabilized around 0.0016% Digitonin, while the nucleus is also permeabilized around 0.05% Digitonin or 0.025% TX-100. In this figure, the reduction in Calcein signal is indicative of permeabilization of the plasma membrane, while the peaked HDAC1 staining indicates complete nuclear permeabilization. The ledge that forms with HDAC1 prior to complete lysis is due to lysis of the endoplasmic reticulum, which also contains HDAC1.
(§2) FIG. 2 is a comparison of the efficiency of cytoplasmic vs. nuclear permeabilization of T cells and monocytes by different concentrations of Digitonin or TX-100. FIG. 2A is a titration performed on whole blood, while FIG. 2B is a titration performed on PBMCs. In both cases, the samples were first preloaded for 1 hour with 1 μM CytoCalcein Violet (AAT Bioquest, Inc) in a CO2-regulated 37° C. incubator. After 1 hour, the samples were fixed for 10 min with 4% PFA, and then incubated for 30 min at RT with the different concentrations of detergents diluted in diH2O, at a 1:5 ratio with the sample mixture. The samples were then washed and stained with anti-HDAC1-FITC (Abcam, Plc), washed again, and finally read on a Gallios flow cytometer (BCI). In this figure, cytoplasmic lysis is indicated by the loss of CytoCalcein Violet signal as it is released from the cell once the plasma membrane is permeabilized, while nuclear lysis is indicated by the increased HDAC1 signal as the nuclear membrane is permeabilized. In the case of Digitonin lysis, there is a ledge of HDAC1 staining once the plasma membrane is lysed and prior to full nuclear lysis; this is indicative of lysis of the endoplasmic reticulum, which also contains a repository of HDAC1. In whole blood, there is a working range for Digitonin between roughly 0.015% and 0.125%, where the plasma membrane is lysed, but the nucleus is not. For PBMCs, this range is roughly between 0.001% and 0.0125%.

[6] = tested on: T cells and monocytes in PBMCs; assay: Digitonin and TX-100 titration on PBMCs, flow cytometry (CytoCalcein Violet loss, HDAC1 staining); format: cell-based; settings: for concentration at which the nucleus is also permeabilized: peaked HDAC1 staining
Excerpt: as §1, §2

[7] = tested on: CREB, RelA and ERK phosphorylation in monocytes; assay: Stimulation of monocytes with LPS or GM-CSF, cytoplasmic vs. nuclear signaling; format: cell-based; settings: 1 μg/mL LPS or 100 ng/mL GM-CSF
Protocol: FIG. 8. Differential Signaling in Monocytes Induced by 1 μg/mL LPS vs. 100 ng/mL GM-CSF. A) Both LPS and GM-CSF induced CREB phosphorylation at S133, accumulating maximally in the nucleus by 10 min. B) LPS stimulation induced RelA phosphorylation maximally by 10 min in both the cytoplasm and nucleus, though predominantly in the nucleus. C) Both LPS and GM-CSF stimulated ERK phosphorylation primarily in the cytoplasm, maximally by 5 min for GM-CSF and 10 min for LPS.
The protocol for processing whole blood samples is as follows (see FIG. 1 for a workflow): 1) The sample is first mixed 1:1 with fixative, vortexed, and then incubated for 10 minutes. An extra control tube is included for each buffer, which is stained with all antibodies except for the specific signaling or target antibodies being tested in order to subtract the background signal. The background control may also be labeled with isotype-control antibodies for more precise determination of non-specific binding, especially in cells that have characteristically high non-specific binding, such as neutrophils. For indirect antibody labeling, omitting the primary antibody, but still utilizing the secondary antibody, is a common method for determining the degree of non-specific background signal attributable to the secondary antibody, which is typically higher than the direct conjugates of target antibodies. […] 6) Once stained, the samples are again washed 2× with PBS or wash buffer, resuspended in PBS+0.5% PFA, and read on a flow cytometer.
After data acquisition, the samples are gated, compensated, and analyzed as standard flow cytometry samples. […] For example, if staining for the subcellular distribution of FoxP3, where the Background MFIs for the Cytoplasm and Whole Cell are 1.5 and the raw FoxP3 signal is 3.5 and 31.5 for the Cytoplasm and Whole Cell, respectively, then the Cytoplasmic MFI would be calculated to be 2 (i.e., 3.5 (raw)−1.5 (background)=2) and the Nuclear MFI would be calculated to be 28 (i.e., 31.5 (raw)−1.5 (background)−2 (Cytoplasm)=28). […]

Molecule | optimal concentration for whole-cell membrane permeabilization [3] [%] | concentration permeabilizing the whole cell (cytoplasmic and nuclear membranes) [4] [%] | concentration permeabilizing only the plasma (cytoplasmic) membrane [4] [%] | concentration at which surface markers are lost and cells disintegrate [1] | concentration for complete lysis of the cells [5] [%] | concentration at which the nucleus is also permeabilized [5] | concentration for complete lysis of the cells [6] [%] | concentration at which the nucleus is also permeabilized [6] | other results
Octylphenoxypoly(ethylene-oxy)ethanol [NP-40] |  |  |  |  |  |  |  |  | performance compared with TX-100 ([1]; whole blood): performs equivalently to TX-100; also recorded: interchangeable with TX-100 for whole-cell permeabilization
Sodium Deoxycholate |  |  |  |  |  |  |  |  | pH below which the detergent immediately precipitates out of solution [2]: < 7.0
ethyoxylated octylphenol [TX-100] | 0.25 | 0.25 | 0.025 | around 2% | 0.125 | ~0.125% | 0.025 | ~0.025% | working range where the plasma membrane is lysed but the nucleus is not [5]: does not provide this working range
C[C@@H]1CC[C@@]2(OC1)O[C@H]1[C@@H](O)[C@H]3[C@@H]4CC[C@H]5C[C@@H](O[C@@H]6O[C@H](CO)[C@H](O[C@@H]7O[C@H](CO)[C@@H](O)[C@H](O[C@@H]8OC[C@@H](O)[C@H](O)[C@H]8O)[C@H]7O[C@@H]7O[C@H](CO)[C@H](O)[C@H](O[C@@H]8O[C@H](CO)[C@@H](O)[C@H](O)[C@H]8O)[C@H]7O)[C@H](O)[C@H]6O)[C@H](O)C[C@]5(C)[C@H]4CC[C@]3(C)[C@H]1[C@@H]2C [Digitonin] | 0.5 | 0.25 | 0.025 | around 2% | 0.25 | around 0.5% | 0.025 | around 0.05% | optimal concentration for cytoplasmic membrane permeabilization [3]: 0.0625%; concentration at which the cytoplasmic membrane is fully permeabilized ([5]; reduction in Calcein signal): around 0.031%; concentration at which the cytoplasmic membrane is fully permeabilized ([6]; reduction in Calcein signal): around 0.0016%
GM-CSF: cytokine activator reagent |  |  |  |  |  |  |  |  | time of peak RelA S536 phosphorylation [7]: did not stimulate RelA phosphorylation at S536; time of peak ERK phosphorylation (S202/T204) ([7]; primarily cytoplasm): ≤ 5 min
